# Experimental data published in patent US20250230193A1, “CYCLIC COMPOUND HAVING SELECTIVE KRAS INHIBITORY EFFECT ON HRAS AND NRAS” (CHUGAI SEIYAKU KABUSHIKI KAISHA, priority 2022, published 2025).
# *1 amine or outer side, *2 acyl side, *3 side chain or, on linkers, in order; H or OH if unused. Where a SMILES comes first, the peptide text is derived from it. Bridges are numbered along the chain shown (N, C = ends). [ ]: non-standard residue; d: D form. The star is where a group is joined. X21 = O=C([C@H](Cc1ccc(C(F)(F)F)cc1)N(CC1CCCC1)[*:1])[*:2]; hPhe(3-Cl-4-CF3) = N[C@@H](CCc1ccc(C(F)(F)F)c(Cl)c1)C(=O)O; NMeGly(cPent) = CN[C@H](C(=O)O)C1CCCC1; NMeD = CN[C@@H](CC(=O)O)C(=O)O; NMeL = CN[C@@H](CC(C)C)C(=O)O; Morpholide = C1CN(*)CCO1; NMeA = CN[C@@H](C)C(=O)O; Ac5c = NC1(C(=O)O)CCCC1; Aze = O=C(O)[C@@H]1CCN1; Sar = CNCC(=O)O
# Key:
# [1] = biological target: GDP-bound HRAS wild-type protein (Homo sapiens, UniProt P01112); experiment: Binding to HRAS by surface plasmon resonance (SPR), Single Cycle Kinetics; details: for HRAS/KRAS (ratio of KD value with respect to HRAS to KD value with respect to KRAS): GDP-bound HRAS wild-type vs GDP-bound KRAS wild-type
# [2] = biological target: GDP-bound NRAS wild-type protein (Homo sapiens, UniProt P01111); experiment: Binding to NRAS by surface plasmon resonance (SPR), Single Cycle Kinetics; details: for NRAS/KRAS (ratio of KD value with respect to NRAS to KD value with respect to KRAS): GDP-bound NRAS wild-type vs GDP-bound KRAS wild-type
# Chain of GDP-bound NRAS wild-type protein (P01111 whole entry): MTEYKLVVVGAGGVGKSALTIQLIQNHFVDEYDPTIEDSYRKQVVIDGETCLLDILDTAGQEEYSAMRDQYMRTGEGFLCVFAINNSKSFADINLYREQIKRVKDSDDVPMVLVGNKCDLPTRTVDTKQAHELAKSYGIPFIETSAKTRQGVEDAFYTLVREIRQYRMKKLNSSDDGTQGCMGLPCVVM
# Chain of GDP-bound HRAS wild-type protein (P01112 whole entry): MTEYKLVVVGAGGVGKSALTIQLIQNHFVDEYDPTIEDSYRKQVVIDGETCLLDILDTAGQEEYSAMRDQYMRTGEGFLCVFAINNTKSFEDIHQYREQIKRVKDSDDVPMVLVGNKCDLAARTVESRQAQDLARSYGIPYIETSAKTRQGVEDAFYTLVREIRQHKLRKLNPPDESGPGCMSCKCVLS
smiles,measurement,setting,value
CCCOC[C@H]1C(=O)N[C@@H]([C@@H](C)CC)C(=O)N(C)CC(=O)N(C)[C@H]2C/C=C\CCN(C2=O)[C@@H](Cc2ccc(C)cc2)C(=O)N(C)CC(=O)N[C@@H](CCc2cc(F)c(C(F)(F)F)c(F)c2)C(=O)N2C[C@H](C)C[C@H]2C(=O)NC2(CCCC2)C(=O)N(C)[C@@H](C2CCCC2)C(=O)N(C)[C@H](C(=O)N(C)C)CC(=O)N1C [PP2225],HRAS/KRAS (ratio of KD value with respect to HRAS to KD value with respect to KRAS),[1]; SPR,A (a compound having 10 or more and less than 20 is denoted as A)
same,NRAS/KRAS (ratio of KD value with respect to NRAS to KD value with respect to KRAS),[2]; SPR,A (a compound having 10 or more and less than 20 is denoted as A)
CCO[C@@H]1C[C@H]2C(=O)NC3(CCC3)C(=O)N(C)[C@@H](C3CCCC3)C(=O)N(C)[C@H](C(=O)N(C)C)CC(=O)N(C)[C@@H](CC(C)C)C(=O)N[C@@H]([C@@H](C)CC)C(=O)N(C)CC(=O)N(C)[C@H]3C/C=C\CCN(C3=O)[C@@H](Cc3ccc(C(F)(F)F)cc3)C(=O)N(C)CC(=O)N[C@@H](CCc3cc(F)c(C(F)(F)F)c(F)c3)C(=O)N2C1 [PP1107],HRAS/KRAS (ratio of KD value with respect to HRAS to KD value with respect to KRAS),"[1]; KD ratio, SPR",A (a compound having 10 or more and less than 20 is denoted as A)
same,NRAS/KRAS (ratio of KD value with respect to NRAS to KD value with respect to KRAS),"[2]; KD ratio, SPR",A (a compound having 10 or more and less than 20 is denoted as A)
CCC[C@H]1C(=O)N[C@@H]([C@@H](C)CC)C(=O)N2CCC[C@H]2C(=O)N(C)[C@H]2C/C=C\CCN(C2=O)[C@@H](Cc2ccc(C(F)(F)F)cc2)C(=O)N(C)CC(=O)N[C@@H](CCc2cc(F)c(C(F)(F)F)c(F)c2)C(=O)N2C[C@H](OCC)C[C@H]2C(=O)N(C)C2(CCC2)C(=O)N(C)[C@@H](C2CCCC2)C(=O)N(C)[C@H](C(=O)N2CCCCC2)CC(=O)N1C [PP3114],HRAS/KRAS (ratio of KD value with respect to GDP-bound HRAS wild-type protein to KD value with respect to KRAS),"[1]; KD ratio HRAS/KRAS, SPR, GDP-bound wild-type proteins",A (a compound having 10 or more and less than 20 is denoted as A)
same,NRAS/KRAS (ratio of KD value with respect to GDP-bound NRAS wild-type protein to KD value with respect to KRAS),"[2]; KD ratio NRAS/KRAS, SPR, GDP-bound wild-type proteins",AA (a compound having 20 or more is denoted as AA)
CC[C@H](C)[C@@H]1NC(=O)[C@H](CC)N(C)C(=O)C[C@@H](C(=O)N(C)C)N(C)C(=O)[C@H](C2CCCC2)N(C)C(=O)C2(CCC2)NC(=O)[C@@H]2C[C@H](F)CN2C(=O)[C@H](CCc2cc(F)c(C(F)(F)F)c(F)c2)NC(=O)CN(C)C(=O)[C@H](Cc2ccc(C(F)(F)F)cc2)N2CC/C=C\C[C@@H](C2=O)N(C)C(=O)CN(C)C1=O [PP1132],HRAS/KRAS (ratio of KD value with respect to HRAS to KD value with respect to KRAS),"[1]; KD ratio, SPR",B (a compound having 3 or more and less than 10 is denoted as B)
same,NRAS/KRAS (ratio of KD value with respect to NRAS to KD value with respect to KRAS),"[2]; KD ratio, SPR",A (a compound having 10 or more and less than 20 is denoted as A)
CCO[C@@H]1C[C@H]2C(=O)NC3(CCC3)C(=O)N(C)[C@@H](C3CCCC3)C(=O)N(C)[C@H](C(=O)N(C)CC)CC(=O)N(C)[C@H]3CCCCCCc4ccc(cc4)C[C@@H](C(=O)N(C)CC(=O)N[C@@H](CCc4ccc(C(F)(F)F)c(OC)c4)C(=O)N2C1)N1CC/C=C\C[C@@H](C1=O)N(C)C(=O)CN(C)C(=O)[C@H]([C@@H](C)CC)NC3=O [PP2263],HRAS/KRAS (ratio of KD value with respect to HRAS to KD value with respect to KRAS),[1]; SPR,A (a compound having 10 or more and less than 20 is denoted as A)
same,NRAS/KRAS (ratio of KD value with respect to NRAS to KD value with respect to KRAS),[2]; SPR,A (a compound having 10 or more and less than 20 is denoted as A)
CC[C@H](C)[C@@H]1NC(=O)[C@H](CC(C)C)N(C)C(=O)C[C@@H](C(=O)N2CCOCC2)N(C)C(=O)[C@H](C2CCCC2)N(C)C(=O)C2(CCCC2)NC(=O)[C@@H]2CCCN2C(=O)[C@H](CCc2ccc(C(F)(F)F)c(Cl)c2)NC(=O)CN(C)C(=O)[C@H](Cc2ccc(C(F)(F)F)cc2)N(CC2CCCC2)C(=O)[C@@H]2CCN2C(=O)[C@H](C)N(C)C1=O [PP0110] ([NMeL]I[NMeA][Aze][X21][Sar][hPhe(3-Cl-4-CF3)]P[Ac5c][NMeGly(cPent)][NMeD]-Morpholide; lactam N-11),HRAS/KRAS (ratio of KD for GDP-bound HRAS wild-type to KD for KRAS),"[1]; KD ratio HRAS/KRAS, SPR",B (a compound having 3 or more and less than 10 is denoted as B)
same,NRAS/KRAS (ratio of KD for GDP-bound NRAS wild-type to KD for KRAS),"[2]; KD ratio NRAS/KRAS, SPR",C (A compound having a KD ratio of 0.1 or more and less than 3 is denoted as C)
CCC(CC)[C@H]1C(=O)N(C)[C@H](C(=O)N(C)C)CC(=O)N(C)[C@@H](COC)C(=O)N[C@@H]([C@@H](C)CC)C(=O)N(C2CC2)CC(=O)N(C)[C@H]2C/C=C\CCN(C2=O)[C@@H](CC2CCC(F)(F)CC2)C(=O)N(C)CC(=O)N[C@@H](CCc2cc(F)c(C(F)(F)F)c(F)c2)C(=O)N2C[C@H](OC3CCCC3)C[C@H]2C(=O)NC2(CC(C)(C)C2)C(=O)N1C [PP2627],HRAS/KRAS (ratio of KD value with respect to GDP-bound HRAS wild-type protein to KD value with respect to KRAS),"[1]; KD ratio HRAS/KRAS, class symbols",A (a compound having 10 or more and less than 20 is denoted as A)
same,NRAS/KRAS (ratio of KD value with respect to GDP-bound NRAS wild-type protein to KD value with respect to KRAS),"[2]; KD ratio NRAS/KRAS, class symbols",A (a compound having 10 or more and less than 20 is denoted as A)
